Values after ≈ are worked out from the molar mass of the structure shown.
Tests used:
Staphylococcus aureus [1] = assay: Antibacterial activity against Staphylococcus aureus UC 9218; assay type: functional
Staphylococcus aureus [2] = assay: Antibacterial activity against Staphylococcus aureus UC 9218 in presence of 10% human serum; assay type: functional
Staphylococcus aureus [3] = assay: Ratio of MIC of Staphylococcus aureus UC 9218 in presence of 10% serum to MIC of Staphylococcus aureus UC 9218 in absence of serum; assay type: functional
Albumin = Albumin (Homo sapiens, UniProt P02768); assay: Binding affinity to human serum albumin
Staphylococcus aureus [4] = assay: Antibacterial activity against Staphylococcus aureus UC 9218 in presence of 5% human serum; assay type: functional

Albumin, sequence (P02768 whole entry): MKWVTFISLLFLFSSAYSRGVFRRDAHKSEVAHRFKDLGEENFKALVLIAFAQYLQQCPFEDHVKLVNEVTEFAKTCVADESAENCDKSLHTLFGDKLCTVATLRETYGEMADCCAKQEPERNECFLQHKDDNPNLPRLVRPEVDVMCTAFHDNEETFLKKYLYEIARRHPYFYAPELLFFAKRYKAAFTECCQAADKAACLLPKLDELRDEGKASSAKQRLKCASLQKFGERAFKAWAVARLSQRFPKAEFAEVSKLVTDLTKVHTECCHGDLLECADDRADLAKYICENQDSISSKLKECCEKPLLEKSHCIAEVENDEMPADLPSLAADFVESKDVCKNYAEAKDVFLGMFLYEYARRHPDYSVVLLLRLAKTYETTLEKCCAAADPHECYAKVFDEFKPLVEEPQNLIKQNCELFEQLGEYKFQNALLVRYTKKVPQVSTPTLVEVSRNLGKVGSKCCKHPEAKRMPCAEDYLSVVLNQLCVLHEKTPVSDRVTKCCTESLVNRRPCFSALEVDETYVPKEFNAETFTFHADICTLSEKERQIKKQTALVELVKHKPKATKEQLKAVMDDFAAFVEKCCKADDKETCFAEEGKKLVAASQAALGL

Compound | MIC (Staphylococcus aureus [1]) [µg/mL] | MIC (Staphylococcus aureus [2]) [µg/mL] | Ratio (Staphylococcus aureus [3]) | Kd (Albumin) [nM] | MIC (Staphylococcus aureus [4]) [µg/mL]
CSc1ccc(C(=O)Nc2ccc(C#N)cc2C(=O)O)cn1 | 32 (≈ 102 µM) | > 128 | 8 | – | –
CCCC(C)Sc1ccc(C(=O)Nc2ccc(C#N)cc2C(=O)O)cn1 (stereo not given) | – | 16 | 128 | – | –
CCCSc1ccc(C(=O)Nc2ccc(C#N)cc2C(=O)O)cn1 | 0.5 (≈ 1.46 µM) | 32 | 64 | – | –
CCCCCSc1ccc(C(=O)Nc2ccc(C#N)cc2C(=O)O)cn1 | – | 4 | 32 | – | –
COCCOCCCSc1ccc(C(=O)Nc2ccc(C#N)cc2C(=O)O)cn1 | 1 (≈ 2.41 µM) | 4 | 4 | 700 | –
CC(C)CSc1ccc(C(=O)Nc2ccc(C#N)cc2C(=O)O)cn1 | 0.5 (≈ 1.41 µM) | 8 | 16 | – | –
CCCCSc1ccc(C(=O)Nc2ccc(C#N)cc2C(=O)O)cn1 | – | 16 | 64 | – | –
O=C(Nc1ccc(Br)cc1C(=O)O)c1ccc(SC2CCOCC2)nc1 | 1 (≈ 2.29 µM) | 32 | 32 | – | –
CCCCCCSc1ccc(C(=O)Nc2ccc(Cl)cc2C(=O)O)cn1 | – | 64 | 512 | – | –
CC(C)Sc1ccc(C(=O)Nc2ccc(C#N)cc2C(=O)O)cn1 | 1 (≈ 2.93 µM) | 16 | 16 | – | –
O=C(Nc1ccc(Br)cc1C(=O)O)c1ccc(SC2CCCCC2)nc1 | 1 (≈ 2.3 µM) | 64 | 64 | – | –
CC(C)(C)c1ccc(-c2cncc(C(=O)Nc3ccc(C#N)cc3C(=O)O)c2)cc1 | – | > 128 | – | – | > 128
CCC(CC)Sc1ccc(C(=O)Nc2ccc(C#N)cc2C(=O)O)cn1 | – | 8 | 32 | – | –
CC(C)(C)c1ccc(-c2ccc(NC(=O)c3cccc(S(=O)(=O)N4CCc5cc(Cl)ccc54)c3)c(C(=O)O)c2)cc1 | 16 (≈ 27.2 µM) | > 128 | – | – | > 128
CCCCC(C)Sc1ccc(C(=O)Nc2ccc(C#N)cc2C(=O)O)cn1 (stereo not given) | – | 16 | 128 | – | –
CC(C)Sc1ccc(C(=O)Nc2ccc(Br)cc2C(=O)O)cn1 | 1 (≈ 2.53 µM) | 32 | 32 | – | –
N#Cc1ccc(NC(=O)c2ccc(SC3CCOCC3)nc2)c(C(=O)O)c1 | – | 4 | 32 | – | –
CCSc1ccc(C(=O)Nc2ccc(C#N)cc2C(=O)O)cn1 | 0.5 (≈ 1.53 µM) | 8 | 16 | – | –
CCCCCCCCCSc1ccc(C(=O)Nc2ccc(C#N)cc2C(=O)O)cn1 | 1 (≈ 2.35 µM) | > 128 | > 128 | – | –
N#Cc1ccc(NC(=O)c2ccc(SC3CCCCC3)nc2)c(C(=O)O)c1 | 0.5 (≈ 1.31 µM) | 32 | 64 | – | –
CCCCCCSc1ccc(C(=O)Nc2ccc(Br)cc2C(=O)O)cn1 | – | 64 | 512 | – | –
CCCCCCSc1ccc(C(=O)Nc2ccc(C#N)cc2C(=O)O)cn1 | – | 8 | 64 | – | –
N#Cc1ccc(NC(=O)c2ccc(SC3CCCC3)nc2)c(C(=O)O)c1 | 0.5 (≈ 1.36 µM) | 16 | 32 | – | –

Reference: ChEMBL document CHEMBL1147948, “Preparation of novel anthranilic acids as antibacterial agents: extensive evaluation of structural and physical properties on antibacterial activity and human serum albumin affinity” (Bioorg Med Chem Lett, 2007)
